Laboratory results taken from paper PMC8308911, “Pharmacokinetic Study of Anti-osteoarthritic Compounds of a Standardized Fraction from Sphaeralcea Angustifolia” (Pharmaceuticals, 2021).
Several values for one entry are separate records, joined by “and”; a condition that tells them apart may be missing. Identical values can stand only once. Like-named read-outs stand apart in the source and are kept apart here.

Tests used:
[1] = set-up: method as in PMID 23384552; dose or concentration left out as unconfirmed; conditions: feces and urine; ref [20]; cited from earlier work
[2] = Stability of the active compounds in mouse plasma under handling and storage conditions; conditions: mice plasma
Protocol: The investigation presented here expected manipulation conditions during all of the sample storage and process periods, which included the stability data from the freeze/defrost, bench-top, autosampler, and long-term stability tests. For all stability studies, fresh QC samples were evaluated by using a freshly prepared standard curve for the measurements. The analyzed conditions were 0, 8, and 24 h at room temperature, 8 h at 4 °C, and 30 days at −70 °C. The concentrations obtained from all of the stability studies were compared with the fresh QC samples, and the percentage of concentration deviation was calculated.

[3] = Pharmacokinetics after single oral administration of the SaTSS standardized fraction (plasma, HPLC, PKSolver); assay type: in vivo, ICR mice
Protocol: Analyses of HPLC were carried out in a Waters system (2695 Separation module) coupled to a diode array detector (2996) with a 190–600-nm detection range and operated by the Manager Millennium software system (Empower 1; Waters Corporation, Mexico City, Mexico). Separations were performed in a Spherisorb-ODS RP-18 column (250 × 4.6 mm, 5 µm; Waters Corporation, Mexico) employing a constant temperature of 25 °C during the analyses. Samples (20 µL) were eluted at a 1.0 mL/min flow rate with a gradient of mobile phases of (A) high-purity H2O with trifluoroacetic acid to 0.5% v/v (TFA, Sigma-Aldrich, Mexico City, Mexico) and (B) high purity CH3CN, and compounds were detected by monitoring absorbance for tomentin and scopoletin at λ = 343 nm and for sphaeralcic acid at λ = 357 nm. The mobile phase was started with water (100%) and was maintained for 1 min, then solvent B was gradually incorporated at 5% (at 2 min), at 30% (at 4 min), and at 50% (at 16 min). During the next 4 min, solvent B was increased to 100%, and this proportion was maintained for 5 min. Finally, the following 3 min were utilized to return the mobile phase to the initial condition. […] Identification of scopoletin and tomentin as well as sphaeralcic acid was performed by comparing their retention times (tomentin—11.288 min, scopoletin—11.349 min, coumarin mixure—11.457 min, and sphaeralcic acid—23.319 min) and absorbance spectra.
The mice were previously anesthetized with sodium pentobarbital (PiSA Agropecuaria), then retro-orbital sinus blood was obtained using heparinized capillaries and distributed to heparinized tubes, and tubes were centrifuged at 3500 g for 7 min. The plasma obtained was transferred to new tubes and stored at −4 °C until use.
Plasma samples were extracted with CH3CN and TFA (w/v) 20% (1:1), then vials were centrifuged at 14,000 g for 10 min and the supernatant was transferred to another vial and left to dry at room temperature. The precipitate was resuspended with 1 mL of high-purity methanol (Merk, México) and filtered through Teflon membrane (13 mm, 0.45 µm, Life Science). Each filtered sample was injected into the HPLC equipment, and the concentrations of tomentin and scopoletin at λ = 343 nm and of sphaeralcic acid at λ = 357 nm were obtained by comparison with pre-built calibration curves.
To evaluate the suitability of the assay for the pharmacokinetic studies, 400 mg/kg of the active SaTSS fraction standardized in a mixture of tomentin and scopoletin (7.1 mg/400 mg), and sphaeralcic acid (34.6 mg/400 mg) was administered orally or intravenously to the mice. The dose of SaTSS fraction was chosen based on previous research of active compounds, as the median efective dose of each compound and detectable concentrations of them in the fraction. For oral pharmacokinetics, ten animals were used in each group at different times (0, 1.3, 3.3, 5, 10, 20, 40, 60, 80, 120, and 240 min). For intravenous pharmacokinetics, three animals were used in each group at different times (2, 4, 6, 8, 10, 15, 20, 30, and 60 min) Subsequently, the mice were anesthetized, retro-orbital sinus blood was obtained, plasma samples were extracted with CH3CN and TFA (w/v) 20% (1:1), and the extracts were analyzed by HPLC for coumarin (tomentin and scopoletin) and sphaeralcic acid quantification. Pharmacokinetic calculations were performed using the observed data. All data were subsequently processed using the PKSolver add-in program for Microsoft Excel written in Visual Basic for Applications. All values obtained were expressed in mean ± Standard Deviation (SD). For the pharmacokinetic assay, the selection was made either from a one-compartment or from a two-compartment model, with the use of both the Akaike Information Criterion (AIC) and the Schwarz Criterion (SC). […]

[4] = Autosampler (4 °C, 8 h), nominal 2.5 μg/mL
[5] = Autosampler (4 °C, 8 h), nominal 5 μg/mL
[6] = Autosampler (4 °C, 8 h), nominal 10 μg/mL
[7] = Long-term (−70 °C, 1 month), nominal 2.5 μg/mL
[8] = Long-term (−70 °C, 1 month), nominal 5 μg/mL
[9] = Long-term (−70 °C, 1 month), nominal 10 μg/mL
[10] = room temperature, 0 h, nominal 2.5 μg/mL
[11] = room temperature, 0 h, nominal 5 μg/mL
[12] = room temperature, 0 h, nominal 10 μg/mL
[13] = room temperature, 8 h, nominal 2.5 μg/mL
[14] = room temperature, 8 h, nominal 5 μg/mL
[15] = room temperature, 8 h, nominal 10 μg/mL
[16] = room temperature, 24 h, nominal 2.5 μg/mL
[17] = room temperature, 24 h, nominal 5 μg/mL
[18] = room temperature, 24 h, nominal 10 μg/mL
[19] = oral 400 mg/kg SaTSS fraction, two-compartment model
[20] = oral 400 mg/kg SaTSS fraction, two-compartment model, 400 mg/kg
[21] = oral 400 mg/kg SaTSS fraction, two-compartment model, listed as Sphaeralcic Acid, 400 mg/kg
[22] = oral 400 mg/kg SaTSS fraction, two-compartment model, listed as sphaeralcic acid, 400 mg/kg

Accuracy Bias [2, 4]: −3.89%
Observed Concentration [2, 4]: 2.40 ± 0.04 µg/mL
Accuracy Bias [2, 5]: −1.69%
Observed Concentration [2, 5]: 4.92 ± 0.08 µg/mL
Accuracy Bias [2, 6]: −3.34%
Observed Concentration [2, 6]: 9.67 ± 0.12 µg/mL
Accuracy Bias [2, 7]: −4.82%
Observed Concentration [2, 7]: 2.38 ± 0.08 µg/mL
Accuracy Bias [2, 8]: −2.61%
Observed Concentration [2, 8]: 4.87 ± 0.10 µg/mL
Accuracy Bias [2, 9]: −3.50%
Observed Concentration [2, 9]: 9.65 ± 0.08 µg/mL
Accuracy Bias [2, 10]: −0.60%
Observed Concentration [2, 10]: 2.48 ± 0.03 µg/mL
Accuracy Bias [2, 11]: 0.17%
Observed Concentration [2, 11]: 5.01 ± 0.06 µg/mL
Accuracy Bias [2, 12]: −0.49%
Observed Concentration [2, 12]: 9.95 ± 0.11 µg/mL
Accuracy Bias [2, 13]: −9.98%
Observed Concentration [2, 13]: 2.25 ± 0.13 µg/mL
Accuracy Bias [2, 14]: −8.10%
Observed Concentration [2, 14]: 4.59 ± 0.06 µg/mL
Accuracy Bias [2, 15]: −6.48%
Observed Concentration [2, 15]: 9.35 ± 0.11 µg/mL
Accuracy Bias [2, 16]: −9.03%
Observed Concentration [2, 16]: 2.27 ± 0.11 µg/mL
Accuracy Bias [2, 17]: −8.73%
Observed Concentration [2, 17]: 4.56 ± 0.10 µg/mL
Accuracy Bias [2, 18]: −7.37%
Observed Concentration [2, 18]: 9.26 ± 0.07 µg/mL
AUC(0-inf) ([3]; ICR, mouse, plasma, po, 400 mg/kg, oral 400 mg/kg SaTSS fraction, two-compartment model): 3470 ng·h/mL
AUC(0-t) ([3]; ICR, mouse, plasma, po, 400 mg/kg, oral 400 mg/kg SaTSS fraction, two-compartment model, read-out: AUC 0→240 (converted)): 2900 ng·h/mL
CL/F ([3]; ICR, mouse, plasma, po, 400 mg/kg, oral 400 mg/kg SaTSS fraction, two-compartment model, read-out: CL/F (apparent clearance related to bioavailability)): 170 mL/min/kg
Cmax ([3]; ICR, mouse, plasma, po, 400 mg/kg, oral 400 mg/kg SaTSS fraction, two-compartment model, read-out: Cmax): 10400 ng/mL
MRT ([3]; ICR, mouse, plasma, po, 400 mg/kg, oral 400 mg/kg SaTSS fraction, two-compartment model, read-out: MRT (mean residence time) (converted)): 40.2 min
Tmax ([3]; ICR, mouse, plasma, po, 400 mg/kg, oral 400 mg/kg SaTSS fraction, two-compartment model, read-out: Tmax (converted)): 4 min
Vd/F ([3]; ICR, mouse, plasma, po, 400 mg/kg, oral 400 mg/kg SaTSS fraction, two-compartment model, read-out: V/F (apparent volume of distribution related to bioavailability)): 1.31 L/kg
k el ([3]; ICR, mouse, plasma, po, 400 mg/kg, oral 400 mg/kg SaTSS fraction, two-compartment model, read-out: k10 (apparent first-order elimination rate constant from the central compartment) (converted)): 0.00217 s⁻¹
half-life ([3]; ICR, mouse, plasma, po, 400 mg/kg, oral 400 mg/kg SaTSS fraction, two-compartment model, read-out: t1/2β): 44.6 min
concentration at 1.3 min ([3]; ICR, mouse, plasma, oral single dose 400 mg/kg SaTSS fraction, 1.3 min, n = 10): 5040 ± 50 ng/mL
concentration at 3.3 min ([3]; ICR, mouse, plasma, oral single dose 400 mg/kg SaTSS fraction, 3.3 min, n = 10): 9920 ± 410 ng/mL
concentration at 5 min ([3]; ICR, mouse, plasma, oral single dose 400 mg/kg SaTSS fraction, 5 min, n = 10): 12800 ± 540 ng/mL
concentration at 10 min ([3]; ICR, mouse, plasma, oral single dose 400 mg/kg SaTSS fraction, 10 min, n = 10): 4030 ± 110 ng/mL
concentration at 20 min ([3]; ICR, mouse, plasma, oral single dose 400 mg/kg SaTSS fraction, 20 min, n = 10): 2770 ± 80 ng/mL
concentration at 40 min ([3]; ICR, mouse, plasma, oral single dose 400 mg/kg SaTSS fraction, 40 min, n = 10): 1380 ± 120 ng/mL
concentration at 80 min ([3]; ICR, mouse, plasma, oral single dose 400 mg/kg SaTSS fraction, 80 min, n = 10): 170 ± 30 ng/mL
concentration at 120 min ([3]; ICR, mouse, plasma, oral single dose 400 mg/kg SaTSS fraction, 120 min, n = 10): 0 ng/mL
concentration at 240 min ([3]; ICR, mouse, plasma, oral single dose 400 mg/kg SaTSS fraction, 240 min, n = 10): 0 ng/mL
products derived from biotransformation in plasma ([3]; after oral administration of SaTSS fraction): not detected
time at which the plasma concentration fell below LOQ ([3]; oral 400 mg/kg SaTSS fraction): 80 min
time of maximum (highest) observed plasma concentration ([3]; oral 400 mg/kg SaTSS fraction, observed sampling time): five
B (plasma concentration, peripheral compartment) [3, 19]: 1.845 µg/mL
k12 (transfer rate constant central to peripheral compartment) [3, 19]: 0.114 min⁻¹
k21 (transfer rate constant peripheral to central compartment) [3, 19]: 0.031 min⁻¹
α [3, 19]: 0.256 min⁻¹
β [3, 19]: 0.015 min⁻¹
Cmax [3, 20]: 10450 ng/mL
MRT (mean residence time) [3, 20]: 40.17 min
A (plasma concentration, central compartment) [3, 21]: 413.646 µg/mL
AUC 0→240 [3, 21]: 173.724 µg·min/mL
AUC 0→∞ [3, 21]: 208.058 µg·min/mL
CL/F (apparent clearance related to bioavailability) [3, 21]: 0.166 (mg)/(µg/mL)/min
Cmax [3, 21]: 10447 ng/mL
MRT (mean residence time) [3, 21]: 40.167 min
Tmax [3, 21]: 4.004 min
V/F (apparent volume of distribution related to bioavailability) [3, 21]: 1.309 (mg)/(µg/mL)
k10 (apparent first-order elimination rate constant from the central compartment) [3, 21]: 0.127 min⁻¹
ka (apparent first-order absorption rate constant) [3, 21]: 0.273 min⁻¹
t1/2ka (absorption half time) [3, 21]: 2.537 min
t1/2α [3, 21]: 2.698 min
t1/2β [3, 21]: 44.653 min
A (plasma concentration, central compartment) [3, 22]: 413 µg/mL
ka (apparent first-order absorption rate constant) [3, 22]: 0.27 min⁻¹ and 0.273 min⁻¹
t1/2ka (absorption half time) [3, 22]: 2.53 min
t1/2α [3, 22]: 2.70 min
SMILES: COc1c(C)cc2c(C(C)C)cc(C(=O)O)c(O)c2c1O [Sphaeralcic acid, sphaeralcic acid]
route of elimination [1]: enterohepatic route
